Reference: US20110152218A1, “CRYSTALLINE PHOSPHOLIPID, METHOD FOR ITS PRODUCTION AND USE IN TREATING DAMAGED TISSUE” (priority 2008, published 2011)

Experiments:
HPMC = HPMC ATP bioluminescence assay; assay type: cell-based, human; conditions: 72 hours
Experimental: The viability of HPMC after stimulation with FCS, phospholipid prepared according to Example 1 (Vibrated and Non-vibrated), lysophosphatidic acid (LPA), DPPC, DPPC/LPA, POPC, Curosurf, egg-PG (EPG) and the three Intralipid™ products was determined using an ATP assay. This assay measures the light emitted during the ATP dependant oxidation of luciferin in order to accurately quantify the ATP concentration.
As described in Example 3, primary HPMC are isolated from omental tissue biopsies donated by consenting patients undergoing elective abdominal surgery. Cells are grown to approximately 60% confluence in 96 well plates (Falcon) and used at passage 2. All cells are growth arrested in serum free M199 for 24 hours prior to use.
An ATP Bioluminescence Assay Kit CLS II (Roche Diagnostics, Cat No 1 699 695, 11857300) was used. It contains ATP Standard, Luciferase and distilled water. A 10 mM EDTA solution was prepared by dissolving 1.8612 g EDTA (Fischer Scientific, Code D/0650/60, Batch 0447430, Mr-372.24) in 500 ml H2O (or 3.7224 g in 1 litre). A BAC-extract solution was prepared by dissolving 1 g Benzalkonium Chloride (Sigma-Aldrich, Cat:-23, 442-7, Lot S22104-334) in 1 litre of 10 mM EDTA. […]
To mix, rotate the bottle carefully. • 2) Make up an ATP standard solution having a base concentration of 1.65 μM ATP. […] Use distilled water as the control. • 4) Set the Fluostar Optima plate reader to measure luminescence. Set the Fluostar Optima plate reader pump to inject 20 μl of luciferase into each of the required wells. • 5) Place the plate into the plate reader and measure the relative light units (RLU). • 6) Prepare a standard curve such as that shown in FIG. 16 by plotting a graph of RLU against ATP concentration.
96 well plates from the HPMC proliferation study were defrosted. […] The ATP concentrations were calculated from the RLU of the samples using the standard curve. As an alternative to using an ATP standard curve, data can be normalised to the un-stimulated control and expressed as “ATP (% of control)”.

[1] = tested on: human peritoneal mesothelial cell (HPMC); experiment: HPMC proliferation, Alamar Blue and MTT assay; assay type: cell-based; conditions: 48 hours and 72 hours; over the tested concentrations in supplemented M199
Experimental: The effect of a phospholipid prepared as described in Example 1 (and/or its constituent compounds) to induce human peritoneal mesothelial cell proliferation was assessed using an Alamar Blue™ assay and an MTT assay.
The Alamar Blue™ assay is designed to measure the proliferation of various cell types by measuring the ability of the cells to metabolise and reduce a REDOX indicator (Alamar Blue™). Reduction of the REDOX indicator results in a change in its fluorescent activity. Therefore the fluorescent activity measured is proportional to cell proliferation.
The MTT Assay measures the proliferations of various cells and is based on the mitochondrial conversion of tetrazolium salt 3-[4,5-dimethyl-thiazol-2-yl]-2,5-diphenyltetrazium bromide (MTT), into an insoluble formazan salt. The resultant colour change is directly related to the number of viable cells.
As described in Morgan L W et al (“Glucose degradation products (GDP) retard re-mesothelialisation independently of D-glucose concentration.” Kidney Int 64:1854-1866, 2003), primary HPMC are isolated from omental tissue biopsies donated by consenting patients undergoing elective abdominal surgery. Cells were grown to approximately 60% confluence in 96 well plates (Falcon) and used at passage 2. All cells were growth arrested in serum free M199 for 24 hours prior to use.
The supplemented M199 medium was prepared as follows. Earle's salt medium M199 was supplemented with 100μ/ml penicillin, 100 μg/ml streptomycin, 2 mM glutamine, 5 μg/ml insulin, 5 μg/ml transferrin and 0.4 μg/ml hydrocortisone and 2 mmol/L N-2-hydroxyethylpiperazine-N′-2ethanesulfonic acid.
The phospholipid prepared as described in Example 1 was prepared as follows. […]
The growth medium was aspirated from each well and then the well was washed once using 200 μl per well of supplemented M199. […] The fluorescent activity of Alamar Blue™ at 540 nm (wavelength) was measured using a Dynex Revalation 96-multiwell plate reader. […]

Row | Compound | HPMC proliferation by ATP assay (ATP % of control) compared to the negative control (HPMC; single well, over the tested concentrations) | HPMC proliferation compared to the negative control [1] | HPMC proliferation by ATP assay compared to the negative control (HPMC; 0.0875 mg/ml, FIG. 11G)
1 | Lysophosphatidic acid [LPA] | no increase of HPMC proliferation | no significant stimulation of HPMC proliferation | –
2 | CCCCCCCC/C=C\CCCCCCCC(=O)O[C@H](COC(=O)CCCCCCCCCCCCCCC)COP(=O)([O-])OCC[N+](C)(C)C [POPC, Palmitoyl oleoyl phosphatidyl choline] | – | no significant stimulation of HPMC proliferation | increased HPMC proliferation
